Assay results taken from patent US9938265B2, “1,3,4-thiadiazole compounds and their use in treating cancer” (AstraZeneca AB, priority 2015, dated 2018).
Like-named read-outs stand apart in the source and are kept apart here.

Experiments:
GLS1 = GLS1 (Homo sapiens (Human), UniProt O94925); test: GLS Enzyme Potency Assay (Glutamate Oxidase/AmplexRed coupled assay); format: biochemical
Text: (§1) The following assays were used to measure the effects of the compounds described herein: a) GLS Enzyme Potency Assay; b) GLS Cell Potency Assay; c) GLS Cell Proliferation Assay. During the description of the assays, generally: • i. The following abbreviations have been used: CO2=Carbon dioxide; DMEM=Dulbecco's Modified Eagle Medium; DMSO=Dimethyl sulphoxide; EDTA=Ethylenediaminetetraacetic acid; EGTA=Ethylene glycol tetraacetic acid; FCS=Foetal calf serum; h=Hour(s); NBS=Non-binding surface; SDS=Sodium dodecyl sulphate; TRIS=Tris(Hydroxymethyl)aminomethane. • ii. IC50 values were calculated using a smart fitting model in Genedata.
Assay a): GLS Enzyme Potency Assay
A Glutamate Oxidase/AmplexRed coupled assay was used to measure the ability of compounds to bind to and inhibit the activity of GLS1 in vitro. […] GLS1 was diluted to 2× working concentration and incubated at room temperature to allow the tetrameric/dimeric forms to reach steady state. Assay measurements were performed in buffer comprising 50 mM TRIS pH 7.8, 100 mM NaPO4, pH 7.8, 0.001% v/v Tween20. Purified recombinant GLS1 protein was diluted in assay buffer to 12 nM and pre-incubated at room temperature for 30 minutes. […] DMSO concentration was maintained at 2% by back filling with DMSO solution. 3 μL of diluted GLS1 protein (12 nM) was then dispensed into each well using a BioRaptr automated dispenser (Beckman-Coulter) and incubated for 15 minutes at room temperature. 3 μL of 100 mM glutamine diluted in assay buffer was then added and the reaction incubated at room temperature for 60 minutes. […] An artefact version of the assay where the 6His tagged GLS protein and glutamine were replaced with assay buffer was also used to rule out non specific effects on the assay components.

cellular GLS activity = cellular GLS activity (Homo sapiens (Human), UniProt O94925); test: GLS Cell Potency Assay (PC3 coupled assay measuring cellular glutamate depletion); format: cell-based; conditions: PC3 cells, 6 h incubation, glutamate depletion; read-out: Assay b) GLS cell MOA Mean IC50
Sequence of cellular GLS activity (O94925 73-669): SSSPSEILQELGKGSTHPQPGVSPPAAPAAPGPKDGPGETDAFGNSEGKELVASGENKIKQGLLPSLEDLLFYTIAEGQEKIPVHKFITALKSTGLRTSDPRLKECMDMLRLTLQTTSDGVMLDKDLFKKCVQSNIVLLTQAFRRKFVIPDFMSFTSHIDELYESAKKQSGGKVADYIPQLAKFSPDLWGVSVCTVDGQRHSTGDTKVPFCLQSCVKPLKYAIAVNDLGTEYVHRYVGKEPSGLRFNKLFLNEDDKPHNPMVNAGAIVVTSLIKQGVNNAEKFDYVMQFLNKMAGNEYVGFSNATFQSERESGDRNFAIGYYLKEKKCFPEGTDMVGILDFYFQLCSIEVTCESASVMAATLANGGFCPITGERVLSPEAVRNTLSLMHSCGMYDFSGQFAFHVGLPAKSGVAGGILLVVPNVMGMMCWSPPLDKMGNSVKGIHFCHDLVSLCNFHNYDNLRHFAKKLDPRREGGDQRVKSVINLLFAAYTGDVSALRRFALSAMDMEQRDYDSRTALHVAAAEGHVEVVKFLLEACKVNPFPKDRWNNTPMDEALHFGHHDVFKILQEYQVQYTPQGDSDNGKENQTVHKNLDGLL
Text: as §1
Assay b): GLS Cell Potency Assay
Compounds were assessed for their potential to inhibit cellular GLS activity by use of a PC3 coupled assay measuring cellular glutamate depletion. […] DMSO concentration was maintained at 0.3% by back filling with DMSO solution. PC3 cells were grown in phenol free DMEM, 10% dialyzed FCS, 2 mM glutamine and following dispersal by trypsinisation were plated at 5.6×10^3 cells per well in 40 μl of growth medium directly into the 384 well assay plates containing dispensed compound. After incubation for 6 h at 37° C., 5% CO2 growth media was aspirated and cells lysed in 15 μl of buffer containing 10 mM TRIS pH7.4, 100 mM NaCl, 1 mM EDTA, 1 mM EGTA, 1 mM NaF, 20 mM Na4P2O7, 2 mM Na3VO4, 1% Triton X-100, 10% glycerol, 0.1% SDS and 0.5% deoxycholate.

NCI-H1703 cells = test: GLS Cell Proliferation Assay (NCI-H1703 cell proliferation); format: cell-based
Text: as §1
Assay c): GLS Cell Proliferation Assay
The ability of compounds to inhibit cell growth was measured using a 384 well plate NCI-H1703 cell proliferation assay. NCI-H1703 cells were grown in phenol red free RPMI1640, 10% FCS and 2 mM glutamine and seeded at a density of 750 cells per well in 40 μl of growth medium into clear-bottom 384 well assay plates (Corning product code 3712) and incubated for 24 h at 37° C., 5% CO2. Test compounds were prepared by dilution in 100% DMSO to give the correct dose range for 12 point concentration response and an appropriate volume (5-120 nl) dispensed directly into the assay plates containing plated cells. DMSO concentration was maintained at 0.3% by back filling with DMSO solution. Plates were incubated for 5 days at 37° C., 5% CO2, Sytox Green and Saponin added to final concentration of 2 μM and 0.25% respectively and incubated for 6 h prior to analysis. Plates were read on an Acumen eX3 (TTP Labtech) using 488 nm excitation and FITC filter set (500-530 nm) for emission. IC50 values were calculated by curve fitting to max inhibition of day zero growth using GeneData software analysis.

[1] = 6His tagged GLS protein (amino acids 63-669), glutamine substrate; read-out: Assay a) enz IC50
[2] = NCI-H1703 cells, 5 days; read-out: Assay c) Prolif Mean IC50

Sequence of GLS1 (O94925 63-669): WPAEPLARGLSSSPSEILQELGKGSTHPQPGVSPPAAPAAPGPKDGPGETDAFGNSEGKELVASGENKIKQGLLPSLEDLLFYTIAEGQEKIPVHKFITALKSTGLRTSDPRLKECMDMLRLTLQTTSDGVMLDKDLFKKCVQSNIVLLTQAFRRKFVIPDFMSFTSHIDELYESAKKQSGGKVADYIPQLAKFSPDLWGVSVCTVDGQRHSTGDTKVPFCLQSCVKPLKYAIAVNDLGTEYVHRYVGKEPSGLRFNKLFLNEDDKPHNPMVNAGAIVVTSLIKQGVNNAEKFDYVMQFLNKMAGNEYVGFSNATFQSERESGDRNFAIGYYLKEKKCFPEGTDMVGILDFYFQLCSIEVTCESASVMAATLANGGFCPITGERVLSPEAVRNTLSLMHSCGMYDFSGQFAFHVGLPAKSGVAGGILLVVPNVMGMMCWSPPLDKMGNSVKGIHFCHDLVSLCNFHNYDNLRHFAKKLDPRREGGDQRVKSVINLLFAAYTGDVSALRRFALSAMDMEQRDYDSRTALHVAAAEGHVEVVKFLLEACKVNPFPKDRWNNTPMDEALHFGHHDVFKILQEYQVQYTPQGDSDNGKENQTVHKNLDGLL

Work on `COC(C(=O)Nc1nnc(N[C@@H]2CCN(c3ccc(F)nn3)C2)s1)c1ccc(F)cc1` (single isomer, unassigned) [Example 20] yielded an IC50 (GLS1; [1]) of 323 nM, an IC50 (cellular GLS activity) of 79.5 nM and an IC50 (NCI-H1703 cells; [2]) of 1270 nM.
`COC(C(=O)Nc1nnc(N[C@@H]2CCN(c3ccc(F)nn3)C2)s1)c1cccc(OC(F)(F)F)c1` (single isomer, unassigned) [Example 18] showed an IC50 (GLS1; [1]) of 65.3 nM, an IC50 (cellular GLS activity) of 4.91 nM and an IC50 (NCI-H1703 cells; [2]) of 16.8 nM.
For `CCOC(C(=O)Nc1nnc(N[C@@H]2CCN(c3ccc(C)nn3)C2)s1)c1ccc(F)cc1` (single isomer, unassigned) [Example 28], the IC50 (GLS1; [1]) was 96 nM, the IC50 (cellular GLS activity) was 3.57 nM and the IC50 (NCI-H1703 cells; [2]) was 73.2 nM.
`CO[C@H](C(=O)Nc1nnc(N[C@@H]2CCN(c3ccc(C)nn3)C2)s1)c1cccc(OC(F)(F)F)c1` (single isomer, unassigned) [7(b)] showed an IC50 (GLS1; read-out: Assay a) enz IC50) of 334 nM, an IC50 (cellular GLS activity) of 12.7 nM and an IC50 (NCI-H1703 cells; [2]) of 25.6 nM.
Molecule `CO[C@H](C(=O)Nc1nnc(N[C@@H]2CCN(c3ccc(C)nn3)C2)s1)c1ccc(F)cc1` (single isomer, unassigned) [Example 5(a)] has an IC50 (GLS1; [1]) of 155 nM, an IC50 (cellular GLS activity) of 2.78 nM and an IC50 (NCI-H1703 cells; [2]) of 44.1 nM.
With `CO[C@H](C(=O)Nc1nnc(N[C@@H]2CCN(c3ccc(F)nn3)C2)s1)c1ccccc1` [Example 2, (2S)-N-[5-[[(3R)-1-(6-Fluoropyridazin-3-yl)pyrrolidin-3-yl]amino]-1,3,4-thiadiazol-2-yl]-2-methoxy-2-phenyl-acetamide] the IC50 (GLS1; [1]) was 30.3 nM, the IC50 (cellular GLS activity) was 0.965 nM and the IC50 (NCI-H1703 cells; Homo sapiens, NCI-H1703, 120 h, NCI-H1703 cells, 5 days; read-out: Assay c) Prolif Mean IC50) was 16.7 nM.
Molecule `COc1ccc([C@H](OC)C(=O)Nc2nnc(N[C@@H]3CCN(c4cc(C)cnn4)C3)s2)cc1` (single isomer, unassigned) [Example 33(a)] has an IC50 (GLS1; [1]) of 148 nM, an IC50 (cellular GLS activity) of 19.2 nM and an IC50 (NCI-H1703 cells; [2]) of 18.9 nM.
With `COc1ccc([C@H](OC)C(=O)Nc2nnc(N[C@@H]3CCN(c4cc(C)cnn4)C3)s2)cc1` (single isomer, unassigned) [33(b)] the IC50 (GLS1; [1]) was 79.9 nM, the IC50 (cellular GLS activity) was 2.35 nM and the IC50 (NCI-H1703 cells; [2]) was 37.9 nM.
`COC(C(=O)Nc1nnc(N[C@@H]2CCN(c3ccc(F)nn3)C2)s1)c1ccc(F)cc1` (single isomer, unassigned) [Example 19] gave an IC50 (GLS1; [1]) of 55.7 nM, an IC50 (cellular GLS activity) of 4.7 nM and an IC50 (NCI-H1703 cells; [2]) of 71.9 nM.
With `COc1cc(C(OC)C(=O)Nc2nnc(N[C@@H]3CCN(c4ccc(F)nn4)C3)s2)ccc1F` (single isomer, unassigned) [Example 24] the IC50 (GLS1; [1]) was 71.3 nM, the IC50 (cellular GLS activity) was 1.01 nM and the IC50 (NCI-H1703 cells; [2]) was 11.6 nM.
With `COc1cccc([C@H](OC)C(=O)Nc2nnc(N[C@@H]3CCN(c4ccc(C)nn4)C3)s2)c1` (single isomer, unassigned) [Example 1(b)] the IC50 (GLS1; read-out: Assay a) enz IC50) was 406 nM, the IC50 (cellular GLS activity) was 137 nM and the IC50 (NCI-H1703 cells; [2]) was 454 nM.
Molecule `COc1cccc([C@H](OC)C(=O)Nc2nnc(N[C@@H]3CCN(c4ccc(C)nn4)C3)s2)c1` (single isomer, unassigned) [Example 1(a)] has an IC50 (GLS1; [1]) of 55.4 nM, an IC50 (cellular GLS activity) of 0.566 nM and an IC50 (NCI-H1703 cells; [2]) of 4.59 nM.
